Assays:
[1] = tested on: E. coli ATCC 25922; experiment: Killing assay (killing kinetics), logarithmic phase cells; assay type: cell-based, Escherichia coli; conditions: logarithmic phase, 10^5 CFU/mL; for log reduction in cell viability: HEPES-glucose buffer pH 7.4, 37 °C, average ± SE, three independent experiments, SEM; for killing activity (decrease in cell viability), in words: low concentrations 1 µM and 2 µM, up to 2 h
Procedure: (§1) For this study, a well-characterized strain of E. coli (ATCC 25922) was used. The strain was stored at − 80 °C in 15% (v/v) glycerol until sub-cultured onto LB agar plates for use.
(§2) The antibacterial activity of α-MSH and its cationic analogues was determined against both logarithmic (2–3 h) and stationary (16–18 h) phase of E. coli cells in LB medium. The bacterial suspension was pelleted, washed, and diluted in HEPES-glucose buffer (5 mM HEPES, 20 mM glucose, pH 7.4) to adjust the cell density by measuring the OD = 0.5 (10^8 CFU/mL) at 600 nm using a spectrophotometer. This suspension was used to obtain the desired inoculum sizes (10^5 CFU/mL, 10^6 CFU/mL, and 10^7 CFU/mL). The inoculums were exposed to various concentrations of peptides (1 µM, 2 µM, 5 µM, and 10 µM) and incubated at 37 °C. Untreated E. coli cells were also included as a control. At selected time points (0 min, 15 min, 30 min, 60 min, and 120 min), aliquots were taken out, and survival of E. coli cells was determined by quantitative plating on LB agar after appropriate dilution in the same buffer. The plates were incubated overnight at 37 °C, followed by colony counting. Each experiment was performed at least three times on three independent days.

[2] = tested on: E. coli cells; experiment: Membrane permeabilization assay (PI uptake, flow cytometry); assay type: cell-based, Escherichia coli; conditions: span over rising peptide concentrations; 10^6 CFU/mL mid-log cells, PI 1.3 µg/mL, 37 °C, 1 h, flow cytometry; three independent days
Procedure: Membrane permeabilization of E. coli cells was determined via propidium iodide (PI) uptake assay through flow cytometry as described previously with slight modifications. Briefly, mid-log phase E. coli cells were adjusted to 10^6 CFU/mL in the HEPES-glucose buffer. Next, cells were incubated with propidium iodide (PI) at 1.3 µg/mL concentration for 30 min in the dark. After incubation, PI-loaded cells were treated with a range of peptide concentrations, i.e., 1 µM, 2 µM, 5 µM, and 10 µM, at 37 °C for 1 h, and PI fluorescence intensity was measured through Becton Dickinson (BD) FACS verse (San Jose, CA) flow cytometer using excitation at 544 nm and emission at 620 nm.
Figure S2: Histograms of E. coli cells treated with 2 µM concentration of α-MSH and its analogues and 1 µM concentration of polymyxin B for 1 h. Towards monitoring the membrane permeabilizations of E. coli cells, propidium iodide (PI) uptake assay through flow cytometry was performed using the previously standardized method with mild modifications ^2. Briefly, mid-log phase grown E. coli cells (10^6 CFU/mL) suspended in the HEPES-glucose buffer were incubated with propidium iodide (PI) at a concentration of 1.3 µg/mL for 30 min in dark. After incubation, PI loaded cells were treated with a range of peptide concentrations; 1 µM, 2 µM, 5 µM and 10 µM at 37 °C for 1 h, and PI fluorescence intensity was measured through Becton Dickinson (BD) FACS verse (San Jose, CA) flow cytometer using excitation at 544 nm and emission at 620 nm.

[3] = tested on: E. coli outer membrane; experiment: Outer membrane permeabilization assay (NPN uptake); assay type: cell-based, Escherichia coli; conditions: relative to 10 µM polymyxin B = 100%; for %NPN uptake: 10^8 CFU/mL mid-log cells, 10 μM NPN
Procedure: The outer membrane permeabilization assay was done as described in the literature with slight modifications. Briefly, bacterial cells were grown to mid-log phase in LB medium, washed and diluted to 10^8 CFU/mL in HEPES-glucose buffer. Next, this bacterial suspension was treated with 10 μM NPN probe and subsequently challenged with increasing concentrations of peptides (1 µM to 20 µM). Changes in the fluorescence intensity of NPN were measured with the help of Shimadzu RF-5301 PC spectrofluorimeter (excitation at 350 nm and emission at 420 nm). Increased intensity of emission resulted from the damage to the bacterial outer membrane and was measured until no further increase in fluorescence was observed. NPN uptake was calculated using the following formula: %NPNuptake=Fobs-F0/F100-F0×100 where Fobs is the NPN fluorescence intensity after the peptide treatment, F0 is the NPN fluorescence with untreated E. coli cells, and F100 is the NPN fluorescence in the presence of 10 µM polymyxin B (a positive control).

[4] = tested on: stationary phase E. coli cells; experiment: Killing assay, stationary phase cells; assay type: cell-based, Escherichia coli; conditions: 10^5 CFU/mL, HEPES-glucose buffer, 37 °C, peptide 10 µM, 1 h, mean ± SE, three independent days, SEM
Procedure: as §1, §2

[5] = tested on: dye-loaded E. coli cells; experiment: Viability of DiSC3(5) dye-loaded cells by plating; assay type: cell-based, Escherichia coli; conditions: dye-loaded cells 10^6, HEPES-glucose buffer, two different days
Procedure: The membrane depolarization of E. coli cells was determined using a potentiometric fluorescent probe DiSC3(5), as described elsewhere. Briefly, mid-log phase E. coli cells were diluted to 10^6 CFU/mL in the same HEPES-glucose buffer and were incubated with DiSC3(5) and EDTA at 0.4 µM and 0.2 mM concentrations, respectively, for 1 h in the dark at 37 °C, till the maximum uptake of the probe occurred. Increasing concentrations of the studied peptides from 1 µM to 10 µM were then added to these dye-loaded cells in a quartz cuvette, and the fluorescence intensity was measured on spectrofluorimeter (Shimadzu RF-5301 PC) set as excitation at 622 nm and emission at 670 nm. The increase in fluorescence intensity accounted for the dissipation of membrane potential caused due to peptide treatment. Cells treated with 10 µM melittin were used as a positive control. Simultaneously, the dye-loaded cells were plated onto LB agar to estimate bacterial cell death.
Figure S1: Survival of dye-loaded cells (10^6) treated with various concentrations of peptides that correspond to the inner membrane depolarization. The dye-loaded E. coli cells suspended in HEPES-glucose buffer ([…]) were incubated with different concentration of α-MSH and its analogues for 2 minutes and further diluted in the same buffer and plated on LB agar plates. The plates were further incubated at 37 °C for 16 h. Next day the colonies were counted.^1 The experiment was performed on two different days and the representative values (mean ± SE) are shown in graph. (⁎, P < 0.05; ⁎⁎, P < 0.01, compared to that of control at the same concentration).

[6] = tested on: LPS from E. coli O55:B5; experiment: LPS binding assay (BODIPY-TR-cadaverine displacement); set-up: species or system Escherichia coli; conditions: BC displacement, LPS 50 μg/mL, 5 µM BC, 50 mM Tris buffer pH 7.4, peptide 0.25 to 20 µM, Hill equation fit, mean Kd ± SD of two independent experiments, read-out: Kd (dissociation constant) with LPS
Procedure: The binding of α-MSH and its analogues to LPS was checked using BODIPY-TR-cadaverine (BC) as a fluorescent probe[24],[42]. BC fluorescence decreases when bound to cell-free LPS and increases when it is freely accessible in solution. LPS (50 μg/mL) from E. coli O55:B5 (Sigma-Aldrich, India) was incubated with 5 µM of BC in 50 mM Tris buffer (pH 7.4) for 4 h. Next, 800 µL of this LPS-BC mixture was added to varying concentrations (0.25 µM to 20 µM) of the peptides in a quartz cuvette, and the BC fluorescence was measured on a spectrofluorimeter (Shimadzu RF-5301 PC) with excitation at 580 nm and emission at 620 nm. Each experiment was done in duplicate independently. Increase in fluorescence intensities with increase in concentration of peptides were plotted and the dissociation constant (Kd) was calculated from each individual data set and is presented as mean value ± SD using Igor Pro 6.36 (Y = Bmax × Xˆh/(Kdˆh + Xˆh); where X: concentration of peptide (µM), Y: fluorescence intensity (a.u.), h: Hill slope)[43]. The molecular mass of LPS was taken as 20,000 Da as described elsewhere, and its concentration was calculated accordingly.
Table S1: The dissociation constant (Kd) of α-MSH and its analogues with LPS. […]

[7] = peptide 10 µM, 2 min of exposure

Compound | log reduction in cell viability ([1]; peptide 10 µM, 1 h) [log] | killing activity (decrease in cell viability), in words [1] | change of killing activity at 5 µM against lower concentrations, in words ([1]; peptide 5 µM) | PI positive cells [2] | maximum NPN uptake ([3]; over peptide concentrations from 1 to 20 μM) [%] | log reduction in cell viability [4] [log] | log reduction in cell viability of dye-loaded cells ([5]; peptide 5 µM, 2 min exposure) [log] | log reduction in cell viability of dye-loaded cells [5, 7] [log] | Kd [6] [nM] | log reduction in cell viability ([1]; peptide 5 µM, 2 h) [log] | log reduction in cell viability ([1]; peptide 10 µM, 2 h) [log] | %NPN uptake ([3]; peptide 1 μM, HEPES-glucose buffer, average of three independent days) [%] | %NPN uptake ([3]; peptide 20 μM (highest concentration)) [%]
CSCC[C@H](NC(=O)[C@H](CO)NC(=O)[C@H](Cc1ccc(O)cc1)NC(=O)[C@H](CCCCN)NC(C)=O)C(=O)N[C@@H](CCC(=O)O)C(=O)N[C@@H](Cc1c[nH]cn1)C(=O)N[C@@H](Cc1ccccc1)C(=O)N[C@@H](CCCNC(=N)N)C(=O)N[C@@H](Cc1c[nH]c2ccccc12)C(=O)NCC(=O)N[C@@H](CCCCN)C(=O)N1CCC[C@H]1C(=O)N[C@H](C(N)=O)C(C)C [K-MSH] | 1.9 ± 0.3 | very slight decrease in the cell viability | marginal increase in activity | 21.8–26.5% | 16.2 | 1.7 ± 0.3 | 0.7 | 0.6 | – | – | – | – | –
polymyxin B [reference compound] | – | – | – | – | – | – | – | – | 2400 ± 840 | – | – | – | –
CSCC[C@H](NC(=O)[C@H](CCCCN)NC(=O)[C@H](Cc1ccc(O)cc1)NC(=O)[C@H](CCCCN)NC(C)=O)C(=O)N[C@@H](CCC(=O)O)C(=O)N[C@@H](Cc1c[nH]cn1)C(=O)N[C@@H](Cc1ccccc1)C(=O)N[C@@H](CCCNC(=N)N)C(=O)N[C@@H](Cc1c[nH]c2ccccc12)C(=O)NCC(=O)N[C@@H](CCCCN)C(=O)N1CCC[C@H]1C(=O)N[C@H](C(N)=O)C(C)C [KK-MSH] | – | very slight decrease in the cell viability | – | – | – | 1.8 ± 0.05 | 0.5 | 1.2 | – | 1.7 ± 0.4 | 2.6 ± 0.5 | 6.8 | 37.7

From PMC8821551, “Binding of cationic analogues of α-MSH to lipopolysaccharide and disruption of the cytoplasmic membranes caused bactericidal action against Escherichia coli” (Scientific Reports, 2022)
